Laboratory results: patent US20250368638A1, “BICYCLIC INHIBITORS OF NICOTINAMIDE […], COMPOSITIONS AND USES THEREOF” (President and Fellows of Harvard College, priority 2021, published 2025)
Read-outs that look alike come from different tables or passages of the source.

Tests used:
[1] = test system: Ion Channels, GPCR, Transporter, Kinases, Enzyme and Nuclear Hormone Receptor; assay: Off-target safety panel screening; conditions: at 10 μM
Procedure: An off-target safety panel screening for 11 was conducted. The class of target teste included Ion Channels, GPCR, Transporter, Kinases, Enzyme and Nuclear Hormone Receptor.

[2] = test system: Salmonella typhimurium (TA98, TA1535, TA1537) and Escherichia coli WP2uvrA (pKM101); assay: Mini-Ames test; format: cell-based
Procedure: 1. The study evaluated the mutagenic potential of the test article, (or its metabolites) by measuring its ability to induce reverse mutations at selected loci of bacteria Salmonella typhimurium (TA98, TA1535, TA1537) and Escherichia coli WP2uvrA (pKM101) in both the presence and absence of microsomal enzymes.
2. […] Top agar containing 0.6% (w/v) agar and 0.5% (w/v) sodium chloride were supplemented with 0.5 mM D-biotin and 0.5 mM L-histidine for Salmonella typhimurium strains used or 0.5 mM D-biotin and 0.5 mM L-tryptophan for Escherichia coli WP2uvrA (pKM101) used.
3. In the Mini-Ames test, 4 strains were selected for testing: Salmonella typhimurium (TA98, TA1535.TA1537) and Escherichia coli WP2uvrA (pKM101). The test strains were prepared from frozen working stocks. 10 μL frozen working stock adding in 5 mL nutrient broth were incubated with 220 rpm shaking at 37±2° C. for 10 hours until an optical density (at 650 nm) of 0.6-0.8 were reached. The overnight culture were used for the mutagenicity test.
4. The test article was supplied as the powder and maintained at −20° C. until use. Stock solutions were prepared at 50 mg/mL in DMSO (Table 11A). […]
7. […] If the precipitation dose interfere with the scoring (count the number of the revertants), the lowest precipitating dose should be used as the top dose scored. […]
Background lawns are measured microscopically using a stereoscope. […]

1-MNA = assay: Plasma 1-MNA in mice after dosing with 11 (PK/PD); format: in vivo, Female C57B16/N mice
Source text: (§1) Doses were freshly prepared on the day of dosing. Vehicle compositions of each dose are listed below. […] Adjust pH with 1 N hydrochloric acid to obtain a clear solution or (b) 0.2% Tween 80/20% PEG-300 in water. Adjust pH with 1 N hydrochloric acid to obtain a clear solution
(§2) Then the samples were vortexed for 30 s.

[3] = Mouse PK studies of 11 (plasma); format: in vivo, Female C57B16/N mice; conditions: for T1/2: formulation a (0.2% Tween 80, 10% PEG300); for MRT inf: read-out: MRTInf—obs
Source text: as §1, §2

[4] = 10 mg/kg PO of 11, formulation a
[5] = female, C57B16/N, mouse, plasma, iv, 1 mg/kg, 1 mg/kg IV
[6] = female, C57B16/N, mouse, plasma, po, 10 mg/kg, 10 mg/kg PO, formulation a
[7] = female, C57B16/N, mouse, plasma, po, 50 mg/kg, 50 mg/kg PO, formulation a
[8] = female, C57B16/N, mouse, plasma, po, 50 mg/kg, 50 mg/kg PO, formulation b
[9] = female, C57B16/N, mouse, plasma, po, title: single 100 mg/kg dosage, 50 mg/kg^b, formulation b
[10] = female, C57B16/N, mouse, plasma, 1 mg/kg IV

C[C@@H]1Cc2cc(C(N)=O)cnc2N1 [Compound 11, (2R)-2-methyl-2,3-dihydro-1H-pyrrolo[2,3-b]pyridine-5-carboxamide]
Off-target activity [1]: did not show significant off-target activity
F value (Mini Ames) ([2]; all tested concentrations, every strain, with and without an S9 Fraction): less than 2
Mutagenicity (Mini-Ames) ([2]; various bacteria strains, with and without S9): not mutagenic
AUClast of 1-MNA (1-MNA; 1 mg/kg IV of 11): 1289 ng·h/mL
AUClast of 1-MNA (1-MNA; [4]): 943 ng·h/mL
Cmax of 1-MNA (1-MNA; [4]): 54.9 ng/mL
Tmax of 1-MNA (1-MNA; [4]): 24.0 h
AUClast of 1-MNA (1-MNA; 50 mg/kg of 11, formulation a): 653 ng·h/mL
Cmax of 1-MNA (1-MNA; 50 mg/kg of 11, formulation a): 54.8 ng/mL
Tmax of 1-MNA (1-MNA; 50 mg/kg of 11, formulation a): 24.0 h
AUClast of 1-MNA (1-MNA; 50 mg/kg of 11, formulation b): 667 ng·h/mL
Cmax of 1-MNA (1-MNA; 50 mg/kg of 11, formulation b): 70.1 ng/mL
Tmax of 1-MNA (1-MNA; 50 mg/kg of 11, formulation b): 8.17 h
AUClast/D ([3]; 1 mg/kg IV): 464 kg·ng·h/mL/mg
AUC—%Extrap—obs ([3]; 1 mg/kg IV): 0.574%
Cl_obs ([3]; 1 mg/kg IV): 36.1 mL/min/kg
AUClast/D ([3]; 10 mg/kg PO, formulation a): 58.2 kg·ng·h/mL/mg
AUC—%Extrap—obs ([3]; 10 mg/kg PO, formulation a): 1.90%
F_last ([3]; 10 mg/kg PO, formulation a): 12.7%
T1/2 ([3]; 10 mg/kg PO): 1.309 h
AUClast/D ([3]; 50 mg/kg PO, formulation a): 1020 kg·ng·h/mL/mg
AUC—%Extrap—obs ([3]; 50 mg/kg PO, formulation a): 0.258%
Cmax ([3]; 50 mg/kg PO, formulation a): 22500 ng/mL
T1/2 ([3]; 50 mg/kg PO): 2.89 h
AUClast/D ([3]; 50 mg/kg PO, formulation b): 865 kg·ng·h/mL/mg
AUC—%Extrap—obs ([3]; 50 mg/kg PO, formulation b): 7.8%
AUC(0-inf) [3, 5]: 467 ng·h/mL
AUC(0-t) [3, 5]: 464 ng·h/mL
MRT inf [3, 5]: 0.427 h
AUC(0-inf) [3, 6]: 593 ng·h/mL
AUC(0-t) [3, 6]: 582 ng·h/mL
MRT inf [3, 6]: 2.21 h
AUC(0-inf) [3, 7]: 51300 ng·h/mL
AUC(0-t) [3, 7]: 51100 ng·h/mL
MRT inf [3, 7]: 2.5 h
AUC(0-inf) [3, 8]: 46700 ng·h/mL
AUC(0-t) [3, 8]: 43200 ng·h/mL
MRT inf [3, 8]: 3.97 h
AUC(0-t) [3, 9]: 116000 ng·h/mL
Tmax [3, 9]: 0.25 h
half-life [3, 9]: 3.43 h
Cmax ([3]; female, C57B16/N, mouse, plasma, po, title: single 100 mg/kg dosage, 50 mg/kg^b, formulation b, read-out: Cmax): 43200 ng/mL
C0 [3, 10]: 2620 ng/mL
half-life [3, 10]: 0.148 h
Tmax ([3]; female, C57B16/N, mouse, plasma, 10 mg/kg PO, formulation a): 0.5 h
Cmax ([3]; female, C57B16/N, mouse, plasma, 10 mg/kg PO, formulation a, read-out: Cmax): 412 ng/mL
Tmax ([3]; female, C57B16/N, mouse, plasma, 50 mg/kg PO, formulation a): 0.25 h
half-life ([3]; female, C57B16/N, mouse, plasma, 50 mg/kg PO, formulation b (0.2% Tween 80, 20% PEG300)): 4.1 h
Cmax ([3]; female, C57B16/N, mouse, plasma, 50 mg/kg PO, formulation b, read-out: Cmax): 19000 ng/mL
